The record followed here is ChEMBL document CHEMBL1909546, “Antiviral activity of novel 2'-fluoro-6'-methylene-carbocyclic adenosine against wild-type and drug-resistant hepatitis B virus mutants” (Bioorg Med Chem Lett, 2011).

For data set [1], the system named is Hepatitis B virus. The data set is described as follows: Antiviral activity against wild type Hepatitis B virus infected in human HepG2(2.2.15) cells assessed as inhibition of virus replication treated daily for 9 days by quantitative blot hybridization method. In kind it is functional, organism-based. The conditions noted are these: HepG2 2.2.15, 216 h.
Data set [2] concerns Hepatitis B virus. Nature of the data set: Ratio of adefovir EC90 to compound EC90 for wild type Hepatitis B virus. In kind it is functional.
In data set [3] the test system is Hepatitis B virus. Nature of the data set: Fold resistance, ratio of EC90 for lamivudine-resistant Hepatitis B virus harboring reverse transcriptase M204V mutant to EC90 for wild type Hepatitis B virus. The class given is functional.
Data set [4] deals with Hepatitis B virus. Nature of the data set: Antiviral activity against lamivudine-resistant Hepatitis B virus harboring reverse transcriptase M204I mutant infected in human HepG2(2.2.15) cells assessed as inhibition of virus replication treated daily for 9 days by quantitative blot hybridization method. The class given is functional, organism-based. The conditions noted are these: HepG2 2.2.15, 216 h.

Data set [5] deals with Hepatitis B virus. The data set is described as follows: Ratio of adefovir EC90 to compound EC90 for adefovir-resistant Hepatitis B virus harboring reverse transcriptase N236T mutant. In kind it is functional.
Data set [6] has as its system Hepatitis B virus. Nature of the data set: Antiviral activity against lamivudine-resistant Hepatitis B virus harboring reverse transcriptase L180M mutant infected in human HepG2(2.2.15) cells assessed as inhibition of virus replication treated daily for 9 days by quantitative blot hybridization method. The class given is functional, organism-based. The conditions noted are these: HepG2 2.2.15, 216 h.

Data set [7] concerns Hepatitis B virus. The data set is described as follows: Antiviral activity against lamivudine-resistant Hepatitis B virus harboring reverse transcriptase L180M mutant infected in human HepG2(2.2.15) cells assessed as reduction of infectious virus titer treated daily for 9 days by quantitative Southern blot hybridization assay. In kind it is functional. The conditions noted are these: HepG2 2.2.15, 216 h.

Data set [8] in a line: Stability of the compound assessed as resistance to calf thymus adenosine deaminase. The class given is ADME. The conditions noted are these: cattle.
The test system of data set [9] is Hepatitis B virus. The data set is described as follows: Fold resistance, ratio of EC90 for lamivudine-resistant Hepatitis B virus harboring reverse transcriptase L180M mutant to EC90 for wild type Hepatitis B virus. The class given is functional.
Data set [10] has as its system Hepatitis B virus. The data set is described as follows: Fold resistance, ratio of EC90 for lamivudine-resistant Hepatitis B virus harboring reverse transcriptase M204I mutant to EC90 for wild type Hepatitis B virus. The class given is functional.
In data set [11] the test system is Hepatitis B virus. The data set is described as follows: Fold resistance, ratio of EC90 for adefovir-resistant Hepatitis B virus harboring reverse transcriptase N236T mutant to EC90 for wild type Hepatitis B virus. In kind it is functional.
In data set [12] the test system is Hepatitis B virus. The data set is described as follows: Antiviral activity against lamivudine-resistant Hepatitis B virus harboring reverse transcriptase M204I mutant infected in human HepG2(2.2.15) cells assessed as reduction of infectious virus titer treated daily for 9 days by quantitative Southern blot hybridization assay. In kind it is functional. The conditions noted are these: HepG2 2.2.15, 216 h.

Data set [13] concerns Hepatitis B virus. The data set is described as follows: Antiviral activity against lamivudine-resistant Hepatitis B virus harboring reverse transcriptase L180M/M204V double mutant infected in human HepG2(2.2.15) cells assessed as inhibition of virus replication treated daily for 9 days by quantitative blot hybridization method. In kind it is functional, organism-based. Particulars: HepG2 2.2.15, 216 h.

Data set [14] relates to Hepatitis B virus. The data set is described as follows: Fold resistance, ratio of EC90 for lamivudine-resistant Hepatitis B virus harboring reverse transcriptase L180M/M204V double mutant to EC90 for wild type Hepatitis B virus. In kind it is functional.
Data set [15] has as its system Hepatitis B virus. The data set is described as follows: Antiviral activity against adefovir-resistant Hepatitis B virus harboring reverse transcriptase N236T mutant infected in human HepG2(2.2.15) cells assessed as inhibition of virus replication treated daily for 9 days by quantitative blot hybridization method. In kind it is functional, organism-based. The conditions noted are these: HepG2 2.2.15, 216 h.

For data set [16], the system named is Hepatitis B virus. Nature of the data set: Antiviral activity against adefovir-resistant Hepatitis B virus harboring reverse transcriptase N236T mutant infected in human HepG2(2.2.15) cells assessed as reduction of infectious virus titer treated daily for 9 days by quantitative Southern blot hybridization assay. The class given is functional. The conditions noted are these: HepG2 2.2.15, 216 h.

Data set [17] in a line: Cytotoxicity against human HepG2(2.2.15) cells after 24 hrs by neutral red dye uptake assay. In kind it is cell-based.
Data set [18] relates to Hepatitis B virus. Nature of the data set: Antiviral activity against lamivudine-resistant Hepatitis B virus harboring reverse transcriptase M204V mutant infected in human HepG2(2.2.15) cells assessed as inhibition of virus replication treated daily for 9 days by quantitative blot hybridization method. The class given is functional, organism-based. The conditions noted are these: HepG2 2.2.15, 216 h.

For data set [19], the system named is Hepatitis B virus. The data set is described as follows: Antiviral activity against lamivudine/entecavir-resistant Hepatitis B virus harboring reverse transcriptase L180M/M204V/S202G infected in human HepG2(2.2.15) cells assessed as inhibition of virus replication treated daily for 9 days by quantitative blot hybridization method. In kind it is functional, organism-based. The conditions noted are these: HepG2 2.2.15, 216 h.

Data set [20] concerns Hepatitis B virus. The data set is described as follows: Antiviral activity against wild type Hepatitis B virus infected in human HepG2(2.2.15) cells assessed as reduction of infectious virus titer treated daily for 9 days by quantitative Southern blot hybridization assay. In kind it is functional. The conditions noted are these: HepG2 2.2.15, 216 h.
For data set [21], the system named is Hepatitis B virus. The data set is described as follows: Ratio of Lamivudine EC90 to compound EC90 for Lamivudine-resistant Hepatitis B virus harboring reverse transcriptase L180M mutant. The class given is functional.
Data set [22] relates to Hepatitis B virus. Nature of the data set: Ratio of adefovir EC50 to compound EC50 for adefovir-resistant Hepatitis B virus harboring reverse transcriptase N236T mutant. In kind it is functional.
Data set [23] deals with Hepatitis B virus. Nature of the data set: Antiviral activity against lamivudine-resistant Hepatitis B virus harboring reverse transcriptase M204V mutant infected in human HepG2(2.2.15) cells assessed as reduction of infectious virus titer treated daily for 9 days by quantitative Southern blot hybridization assay. Particulars: HepG2 2.2.15, 216 h. In kind it is functional.

In data set [24] the test system is Hepatitis B virus. Nature of the data set: Antiviral activity against lamivudine-resistant Hepatitis B virus harboring reverse transcriptase L180M/M204V double mutant infected in human HepG2(2.2.15) cells assessed as reduction of infectious virus titer treated daily for 9 days by quantitative Southern blot hybridization assay. In kind it is functional. The conditions noted are these: HepG2 2.2.15, 216 h.

Structures are written as SMILES.

Usually EC50 stands for the concentration needed to bring the measured effect to its halfway point. A word on the EC90: it is the concentration at which the effect reaches the 90% level. By CC50 is commonly meant the concentration that lowers cell viability or growth by half. Higher therefore signals better tolerance by the cells. Turning to `C=C1[C@@H](n2cnc3c(N)ncnc32)[C@@H](F)[C@H](O)[C@H]1CO`, the EC50 in [1] worked out at 1.5 µM; in data set [4], 1 µM; in data set [6] it was 2.1 µM; in data set [13], 2.2 µM; in [15], 1.7 µM; in data set [18] it was 1.8 µM. Besides, in [19], the EC50 turned out to be 0.67 µM. Further, the Ratio is reported as 1.5 in [2]; 1 in [3]; 7.8 in data set [5]; 1.1 in data set [9]; 1.1 in data set [10]; 1 in data set [11]. Moreover, the Ratio was 1.2 in data set [14] and 4.3 in [21]. The EC90 in data set [7] was 5.1 µM; in data set [12], 5 µM; in data set [16], 4.6 µM; in data set [20], 4.5 µM; in data set [23], 4.7 µM; in [24], 5.5 µM. In addition, in data set [8], the Stability entry is given as “Stable”. For the same compound, in data set [17], the CC50 at 24 h was more than 100 µM. The “Ratio EC50” value in [22] is 4.5.
As for `Nc1ncnc2c1ncn2CCOCP(=O)(O)O` [ADEFOVIR], the EC50 worked out at 1.3 µM in [1]; 1.9 µM in data set [4]; 5.5 µM in [6]; 2.1 µM in [13]; 7.8 µM in data set [15]; 1.6 µM in data set [18]. The Ratio in data set [3] was 1; in data set [9], 1.1; in [10], 1.1; in [11], 5.1; in data set [14] it was 1.2. For the same compound, the EC90 was found to be 7.7 µM in [7]; 8 µM in data set [12]; 36 µM in [16]; 7.1 µM in data set [20]; 7 µM in data set [23]; 8.5 µM in [24].
As to `C=C1[C@H](CO)[C@@H](O)C[C@@H]1n1cnc2c(=O)[nH]c(N)nc21` [ENTECAVIR], the figures for the EC50 in data set [1] and in data set [19] were 0.008 µM and 1.2 µM, respectively. The compound further gave a CC50 at 24 h in [17] of 28 µM. Also, the EC90 in data set [20] came to 0.033 µM.
For `Nc1ccn([C@@H]2CS[C@H](CO)O2)c(=O)n1` [LAMIVUDINE], the Ratio in data set [3] is given as more than 166; in data set [9], 36.7; in data set [10] it was more than 166; in data set [11] it was 1.5; in [14], more than 166. Further, the EC50 in [4] was more than 100 µM; in data set [6], 1.5 µM; in [13] it was more than 100 µM; in data set [18] it was more than 100 µM; in [19], more than 500 µM. In addition, the 90% effect concentration (EC90) is 22 µM in data set [7]; more than 100 µM in data set [12]; 0.9 µM in data set [16]; 0.6 µM in data set [20]; more than 100 µM in data set [23]; more than 100 µM in [24].
